# Residues, ends and D or L forms follow the SMILES beside them. *: point of attachment. RhodamineB = CCN(CC)c1ccc2c(-c3ccccc3C(=O)*)c3ccc(=[N+](CC)CC)cc-3oc2c1
# What was measured:
# Format in all cases: cell-based
# [1] = tested on: E. faecalis clinical isolate 213; conditions: clinical isolate 213, 24 h
# [2] = tested on: E. faecalis clinical isolate 82; conditions: clinical isolate 82, 24 h
# [3] = tested on: E. faecalis clinical isolate 179; conditions: clinical isolate 179, 24 h
# [4] = tested on: S. aureus clinical isolate 109095; conditions: clinical isolate 109095, 24 h
# [5] = tested on: S. aureus clinical isolate 124653; conditions: clinical isolate 124653, 24 h
# [6] = tested on: E. coli clinical isolate 301755 (MDR); conditions: clinical isolate 301755 (MDR, 24 h)
# HeLa cells = test: Fluorescence confocal microscopy, colocalization analysis (ImageJ JaCoP); conditions: 2 h at IC50, colocalization with SMA antibody
# Protocol: The possible cellular distribution of the peptides was determined by colocalization analysis of the Rhodamine B fluorescent signal, with fluorophores used to stain the nucleus (Hoechst 33342) and cytoplasm components (SMA antibody). ImageJ 1.54f analysis software and the JaCoP plugin were used to analyze signal colocalization.
# HeLa cells (>70% confluence) were seeded on sterile round coverslips in 24-well plates with DMEM + 5% FBS and incubated at 37 °C, 5% CO2 for 24 h. After adhesion, the medium was replaced, and cells were treated with fluorescent peptides at their IC50 for 2 h. Then, cells were washed with PBS under constant stirring (3 × 10 min). Cellular fixation was performed using a solution containing 2% paraformaldehyde and 1% sucrose 100 mM in PBS for 30 min, followed by PBS washes (2 × 10 min). Permeabilization was carried out using a solution of 0.1% Triton X-100 and 20 mM glycine in PBS for 10 min, followed by two additional PBS washes. Blocking was performed with 1% BSA and 20 mM glycine in PBS for 10 min. […] For the fluorescence lecture, 5 µL of Fluoromount mounting medium was applied to the slide, and the coverslip containing the cells was inverted onto the medium. Slides were allowed to be dry-protected from light, and cells were visualized using a Leica DMi8 fluorescence confocal microscope. […]
smiles,measurement,setting,value
"CCN(CC)c1ccc2c(-c3ccccc3C(=O)N[C@@H](CCCNC(=N)N)C(=O)N[C@@H](Cc3c[nH]c4ccccc34)C(=O)N[C@@H](CCC(N)=O)C(=O)N[C@@H](Cc3c[nH]c4ccccc34)C(=O)N[C@@H](CCCNC(=N)N)C(=O)N[C@@H](Cc3c[nH]c4ccccc34)C(=O)N[C@@H](CCC(N)=O)C(=O)N[C@@H](Cc3c[nH]c4ccccc34)C(=O)N[C@@H](CCCNC(=N)N)C(N)=O)c3ccc(=[N+](CC)CC)cc-3oc2c1 [RhB-1, RhB-RWQWRWQWR] (RhodamineB-RWQWRWQWR-NH2)",Minimal bactericidal concentration (MBC),[1],> 105 µM
same,Minimal inhibitory concentration (MIC),[1],> 105 µM
same,Minimal bactericidal concentration (MBC),[2],105 µM
same,Minimal inhibitory concentration (MIC),[2],26 µM
same,Minimal bactericidal concentration (MBC),[3],> 105 µM
same,Minimal inhibitory concentration (MIC),[3],> 105 µM
same,Minimal bactericidal concentration (MBC),[4],105 µM
same,Minimal inhibitory concentration (MIC),[4],26 µM
same,Minimal bactericidal concentration (MBC),[5],105 µM
same,Minimal inhibitory concentration (MIC),[5],105 µM
same,Minimal bactericidal concentration (MBC),[6],> 105 µM
same,Minimal inhibitory concentration (MIC),[6],> 105 µM
same,cellular localization,HeLa cells,internalized and distributed in the cytoplasm
